From patent publication US20220241409A1, “WATER SOLUBLE ADJUVANT AND COMPOSITION CONTAINING SAME” (Sumitomo Dainippon Pharma Co., Ltd., priority 2019, published 2022)

Experiments:
[1] = tested on: HLA-A*02:01 transgenic mouse; assay: In vivo adjuvant activity, CTL induction with vaccine c, IFNγ ELISPOT (Test 9); details: 32.5 ng per body added to vaccine c versus no compound; twice, one week interval
Procedure: The in vivo adjuvant activity of the compounds prepared in Example 3 was evaluated in the following procedure. To a vaccine comprising Peptide SEQ ID No. 1 prepared in Reference example 1 with a preliminarily-emulsified composition (hereinafter, referred to as “vaccine c”) was added the compound prepared in Example 3 to prepare a vaccine. The vaccine was administered to a HLA-A*02:01 transgenic mouse, and the adjuvant activity of the vaccine was evaluated by the method of testing antigen-specific CTL induction.
Specifically, Peptide SEQ ID No. 1 was dissolved in DMSO, and then diluted with water for injection to concentrations of Peptide SEQ ID No. 1 of 2 mg/mL. The diluted peptide solution was mixed and emulsified with an equal volume of a preliminarily-emulsified composition to prepare vaccine c. Vaccine c was injected to mice intradermally at the tail base area in an amount for administering 200 μg of Peptide SEQ ID No. 1 per body. Or, in the step of preparing vaccine c, the compound prepared in Example 3 was added to the diluted peptide solution to prepare a vaccine, and the prepared vaccine was injected to mice intradermally at the tail base area in an amount for administering 200 μg of Peptide SEQ ID No. 1 per body, and 32.5 ng of the compound prepared in Example 3 per body. […] Then, after removal of the supernatant from the wells, stained spots on the ELISPOT plate were counted.

[2] = tested on: HLA-A*02:01/HLA-DRB1*01:01 transgenic mouse; assay: In vivo adjuvant activity, helper T-cell induction with vaccine d, IFNγ ELISPOT (Test 10); details: 3.25 ng per body added to vaccine d versus no compound; twice, one week interval
Procedure: The in vivo adjuvant activity of the compound prepared in Example 3 was evaluated in the following procedure. To a cocktail vaccine comprising Compound SEQ ID No. 1 prepared in Reference example 1 and Peptide SEQ ID No. 4 prepared in Reference example 4 with a preliminarily-emulsified composition (hereinafter, referred to as “vaccine d”) was added the compound prepared in Example 3 to prepare a vaccine. The vaccine was administered to a HLA-A*02:01/HLA-DRB1*01:01 transgenic mouse (C57BL/6CrHLA-A2.1DR1), and the adjuvant activity of the vaccine was evaluated by the method of testing antigen-specific helper T-cell induction. Peptide SEQ ID No. 4 is a helper peptide derived from HLA-DRB1*01:01-restricted WT1 protein.
Specifically, Peptide SEQ ID No. 1 and Peptide SEQ ID No. 4 were dissolved in DMSO, and then diluted with water for injection to concentrations of Peptide SEQ ID No. 1 of 0.9 mg/mL and Peptide SEQ ID No. 4 of 1.8 mg/mL. The diluted peptide solution was mixed and emulsified with an equal volume of a preliminarily-emulsified composition to prepare vaccine d. Vaccine d was injected to mice intradermally at the tail base area in an amount for administering 180 μg of Peptide SEQ ID No. 1 per body and 360 μg of Peptide SEQ ID No. 4 per body. […] Then, after removal of the supernatant from the wells, stained spots on the ELISPOT plate were counted.

[3] = tested on: Antigen-Specific CTL; assay: Immune response of antigen-specific CTL for peptide and tumor cell, vaccine b (Test 12); assay type: in vivo, mouse
Procedure: Vaccine b prepared like Test 8 was injected to a HLA-A*02:01 transgenic mouse intradermally at the tail base area in an amount for administering 300 μg of Compound of formula 4 per body and 225 μg of Peptide SEQ ID No. 3 per body. Or, in the step of preparing vaccine b, the compound prepared in Example 2 was added to the diluted peptide solution to prepare a vaccine, and the prepared vaccine was injected to a HLA-A*02:01 transgenic mouse intradermally at the tail base area in an amount for administering 300 μg of Compound of formula 4 per body, 225 μg of Peptide SEQ ID No. 3 per body, and 325 ng of the compound prepared in Example 2 per body. One week later, the mice were sacrificed with CO2 gas, and then spleens removed from the mice. A splenocyte suspension was prepared from the spleens with CTM. Like Test 6, Peptide (SEQ ID No. 1) was added to the splenocyte-containing ELISPOT plate, and the plate was incubated overnight at 37° C. under an atmosphere of 5% CO2 to re-stimulate the peptide in vitro. Then, after removal of the supernatant from the wells, stained spots on the ELISPOT plate were counted. […] The concentration of mouse IFN-γ in the culture supernatant was measured with an ELISA kit.

| SMILES | CTL counts responsive to Peptide of SEQ ID No. 1 [1] | T-cell counts responsive to Peptide SEQ ID No. 4 (helper T-cell) [2] | CTLs specific to Peptide (SEQ ID No. 1) in splenocyte, relative to vaccine b without compound ([3]; IFN-γ ELISPOT, 325 ng per body in vaccine b, one week later) | amount of IFN-γ produced from the CTL, relative to vaccine b without compound ([3]; about three days culture with LLC-HHD-WT1 tumor cells and Peptide SEQ ID No. 1, ELISA, average of 3 wells) |
| --- | --- | --- | --- | --- |
| CCCCOc1nc(N)c2[nH]c(=O)n(Cc3ccc(CN(C)CCOCCOCCOCCOCCO)cc3)c2n1 [Example 3, 6-amino-2-butoxy-9-{[4-(16-hydroxy-2-methyl-5,8,11,14-tetraoxa-2-azahexadecan-1-yl)phenyl]methyl}-7,9-dihydro-8H-purin-8-one] | more | more | – | – |
| CCCCOc1nc(N)c2[nH]c(=O)n(Cc3ccc(CN(C)CCOCCOCCOCCOCCO)nc3)c2n1 [Example 2, 6-amino-2-butoxy-9-{[6-(16-hydroxy-2-methyl-5,8,11,14-tetraoxa-2-azahexadecan-1-yl)pyridin-3-yl]methyl}-7,9-dihydro-8H-purin-8-one-trifluoroacetate] | – | – | 1.8 times | 8.7 times |
